Data taken from ChEMBL document CHEMBL1828508, “Biphenyl-3-yl alkylcarbamates as fatty acid amide hydrolase (FAAH) inhibitors: steric effects of N-alkyl chain on rat plasma and liver stability” (Eur J Med Chem, 2011).

What was measured:
[1] = Chemical stability of the compound in 0.01 M borate buffer assessed as half life at pH 9.0 by HPLC analysis; assay type: physicochemical; conditions: for t1/2: buffer; for half-life: 0.01 M borate buffer
Plasma [2] = assay: (§1) Metabolic stability of the compound in Wistar rat plasma assessed as half life at 1 uM by RP-HPLC analysis; assay type: ADME, cell-free; conditions: 1 µM
Liver [3] = assay: (§2) Metabolic stability of the compound in Wistar rat liver S9 fraction assessed as half life at 1 uM by RP-HPLC analysis; assay type: ADME, subcellular; conditions: s9, 1 µM
Plasma [4] = assay: Hydrolytic rate constant, log k of the compound in Wistar rat plasma; assay type: ADME, cell-free
Liver [5] = assay: Hydrolytic rate constant, log k of the compound in Wistar rat liver S9 fraction; assay type: ADME, subcellular
[6] = Chemical stability of the compound in 0.01 M PBS assessed as compound remaining at pH 7.4 by HPLC analysis; conditions: buffer; note: time not given here
[7] = as §1; assay type: ADME, cell-free; conditions: Wistar
[8] = as §2; assay type: ADME, subcellular; conditions: Wistar, liver S9 fraction
[9] = Chemical stability of the compound in 0.01 M borate buffer assessed as half life at 1 uM and pH 9.0 by HPLC analysis; assay type: physicochemical
[10] = Chemical stability of the compound in 0.01 M borate buffer assessed as half life at 300 nM and pH 9.0 by HPLC analysis; assay type: physicochemical
[11] = Chemical stability of the compound in 0.01 M borate buffer assessed as half life at 100 nM and pH 9.0 by HPLC analysis; assay type: physicochemical
Rattus norvegicus = assay: In vivo displacement of [3H]-anandamide from rat brain FAAH after 30 mins by scintillation counting; assay type: functional; conditions: read-out: ID50 (the source's name)
[12] = target: T1, Fatty-acid amide hydrolase 1 (Rattus norvegicus, UniProt P97612); assay: Displacement of [3H]-anandamide from rat brain FAAH after 30 mins by scintillation counting
T1 sequence (P97612 whole entry): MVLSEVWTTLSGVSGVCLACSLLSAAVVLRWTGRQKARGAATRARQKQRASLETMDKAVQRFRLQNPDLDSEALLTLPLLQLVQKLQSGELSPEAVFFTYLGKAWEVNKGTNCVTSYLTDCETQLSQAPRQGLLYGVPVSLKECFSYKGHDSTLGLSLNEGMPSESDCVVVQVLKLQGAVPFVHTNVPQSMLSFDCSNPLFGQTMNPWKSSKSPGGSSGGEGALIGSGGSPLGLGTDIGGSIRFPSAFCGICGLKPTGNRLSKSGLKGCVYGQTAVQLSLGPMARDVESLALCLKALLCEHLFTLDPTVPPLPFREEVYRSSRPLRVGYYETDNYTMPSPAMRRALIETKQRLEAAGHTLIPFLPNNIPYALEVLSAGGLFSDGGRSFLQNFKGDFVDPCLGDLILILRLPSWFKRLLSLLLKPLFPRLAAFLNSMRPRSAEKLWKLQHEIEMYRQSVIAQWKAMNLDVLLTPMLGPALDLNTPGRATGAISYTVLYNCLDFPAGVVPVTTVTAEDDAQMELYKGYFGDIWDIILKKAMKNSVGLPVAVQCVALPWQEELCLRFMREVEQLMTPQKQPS

[13] = Metabolic stability of the compound in Wistar rat liver S9 fraction at 1 uM measured after 90 mins by RP-HPLC analysis; assay type: ADME, subcellular; conditions: read-out: Stability
[14] = target: T2, Fatty-acid amide hydrolase 1 (Rattus norvegicus) (UniProt P97612); assay: Selectivity index, ratio URB524 pIC50 to compound pIC50 for displacement of [3H]-anandamide from rat brain FAAH after 30 mins by scintillation counting
T2 sequence (whole entry): T1 sequence (P97612 whole entry)

CNC(=O)Oc1cccc(-c2ccccc2)c1
t1/2 [1]: 43.8 min | t1/2 (Plasma [2]): 3.8 min | t1/2 (Liver [3]): 7.4 min | Activity (Plasma [4]): -0.74 | Activity (Liver [5]): -1.03 | Stability [6]: 33.9%

NC(=O)c1cccc(-c2cccc(OC(=O)NCc3ccc4ccccc4c3)c2)c1
t1/2 [1]: 13.9 min | t1/2 (Plasma [2]): 5.6 min | t1/2 (Liver [3]): 39 min | Stability [6]: 22.8%

O=C(NCc1ccccc1)Oc1cccc(-c2ccccc2)c1
t1/2 [1]: 26.5 min | t1/2 (Plasma [2]): 14.3 min | t1/2 (Liver [3]): 10.8 min | Activity (Plasma [4]): -1.32 | Activity (Liver [5]): -1.19 | Stability [6]: 22.7%

O=C(NC1CCC1)Oc1cccc(-c2ccccc2)c1
t1/2 [1]: 27.5 min | t1/2 (Plasma [2]): 19.9 min | t1/2 (Liver [3]): 2.5 min | Activity (Plasma [4]): -1.46 | Activity (Liver [5]): -0.56 | Stability [6]: 22.6%

O=C(NC1CCCCC1)Oc1cccc(-c2ccccc2)c1
half-life [1]: 40.7 min | half-life at 1 µM [7]: 42.7 min | half-life at 1 µM [8]: 6 min | half-life at 1 µM [9]: 40.4 min | half-life at 0.3 µM [10]: 42.7 min | half-life at 0.1 µM [11]: 42.3 min | Activity (Plasma [4]): -1.79 | Activity (Liver [5]): -0.94 | ED50 (Rattus norvegicus): 0.81 mg/kg | Stability [6]: 41.1%

O=C(NC1CCCC1)Oc1cccc(-c2ccccc2)c1
t1/2 [1]: 45.1 min | t1/2 (Plasma [2]): 40 min | t1/2 (Liver [3]): 2.5 min | Activity (Plasma [4]): -1.76 | Activity (Liver [5]): -0.56 | Stability [6]: 34.4%

O=C(NCCCCCCc1ccccc1)Oc1cccc(-c2ccccc2)c1
t1/2 [1]: 73.8 min | t1/2 (Plasma [2]): 8.4 min | t1/2 (Liver [3]): 39.4 min | Activity (Plasma [4]): -1.08 | Activity (Liver [5]): -1.75 | Stability [6]: 61.1%

O=C(NCC1CCCCC1)Oc1cccc(-c2ccccc2)c1
t1/2 [1]: 104.8 min | t1/2 (Plasma [2]): 15.3 min | t1/2 (Liver [3]): 9.8 min | Activity (Plasma [4]): -1.35 | Activity (Liver [5]): -1.15 | Stability [6]: 65.4%

CCCCCCNC(=O)Oc1cccc(-c2ccccc2)c1
t1/2 [1]: 68.3 min | t1/2 (Plasma [2]): 7.5 min | t1/2 (Liver [3]): 8 min | Activity (Plasma [4]): -1.03 | Activity (Liver [5]): -1.06 | Stability [6]: 46.7%

NC(=O)c1cccc(-c2cccc(OC(=O)NCCCCc3ccccc3)c2)c1
t1/2 [1]: 30.3 min | t1/2 (Plasma [2]): 4.2 min | t1/2 (Liver [3]): 46.9 min | pIC50 [12]: 9.48 | Stability [6]: 18.8%

CC(C)NC(=O)Oc1cccc(-c2ccccc2)c1
t1/2 [1]: 61.8 min | t1/2 (Plasma [2]): 20 min | t1/2 (Liver [3]): 1.9 min | Activity (Plasma [4]): -1.46 | Activity (Liver [5]): -0.45 | Stability [6]: 34.6%

O=C(NCc1cccc2ccccc12)Oc1cccc(-c2ccccc2)c1
t1/2 [1]: 38.7 min | t1/2 (Plasma [2]): 7.3 min | t1/2 (Liver [3]): 46.8 min | Activity (Plasma [4]): -1.03 | Activity (Liver [5]): -1.83 | Stability [6]: 24.8%

O=C(NCc1ccc2ccccc2c1)Oc1cccc(-c2ccccc2)c1
t1/2 [1]: 23.9 min | t1/2 (Plasma [2]): 1 min | t1/2 (Liver [3]): 27.5 min | Activity (Plasma [4]): -0.17 | Activity (Liver [5]): -1.6 | Stability [6]: 18.4%

NC(=O)c1cccc(-c2cccc(OC(=O)NC3CCCCC3)c2)c1 [URB-597]
half-life [1]: 33 min | half-life at 1 µM [7]: 33 min | half-life at 1 µM [8]: 58.7 min | Stability [6]: 40.2%

O=C(NC12CC3CC(CC(C3)C1)C2)Oc1cccc(-c2ccccc2)c1
t1/2 (Plasma [2]): 183.3 min | half-life at 1 µM [9]: 266 min | half-life at 0.3 µM [10]: 262 min | half-life at 0.1 µM [11]: 264 min | Activity (Plasma [4]): -2.42 | remaining at 1.5 h, 1 µM [13]: 99.2% | Stability [6]: 66.7%

O=C(NCCCCc1ccccc1)Oc1cccc(-c2ccccc2)c1
t1/2 (Plasma [2]): 6.6 min | t1/2 (Liver [3]): 19.3 min | half-life at 1 µM [9]: 43.1 min | half-life at 0.3 µM [10]: 42 min | half-life at 0.1 µM [11]: 41.7 min | Activity (Plasma [4]): -0.98 | Activity (Liver [5]): -1.44 | ED50 (Rattus norvegicus): 0.96 mg/kg | Ratio pIC50 [14]: 10 | Stability [6]: 35.9%

O=C(NC1Cc2ccccc2C1)Oc1cccc(-c2ccccc2)c1
t1/2 [1]: 22.4 min | t1/2 (Plasma [2]): 16.5 min | t1/2 (Liver [3]): 63.1 min | Activity (Plasma [4]): -1.38 | Activity (Liver [5]): -1.96 | Stability [6]: 16.2%

CCCCNC(=O)Oc1cccc(-c2ccccc2)c1
t1/2 [1]: 42.9 min | t1/2 (Plasma [2]): 21.6 min | t1/2 (Liver [3]): 1.8 min | Activity (Plasma [4]): -1.49 | Activity (Liver [5]): -0.41 | Stability [6]: 46.7%

O=C(NCCCCCCN1CCOCC1)Oc1cccc(-c2ccccc2)c1
t1/2 [1]: 33.4 min | t1/2 (Plasma [2]): 8 min | t1/2 (Liver [3]): 13 min | Activity (Plasma [4]): -1.06 | Activity (Liver [5]): -1.27 | Stability [6]: 30.9%

O=C(NCCc1ccccc1)Oc1cccc(-c2ccccc2)c1
t1/2 [1]: 40 min | t1/2 (Plasma [2]): 22.1 min | t1/2 (Liver [3]): 2.7 min | Activity (Plasma [4]): -1.5 | Activity (Liver [5]): -0.59 | Stability [6]: 34.9%
